Test [1] concerns murine melanoma cancer cells (B16F0). Description: Ad-RTS-mIL12 with different activator doses in the melanoma (B16F0) model. Type of test: in vivo, mouse. As to conditions: activator chow alone. Here is the method:
Female, 6- to 8-week-old C57b/6 immunocompetent mice were inoculated subcutaneously (s.c.) with murine melanoma cancer cells (B16F0). Ten days post cell inoculation, the mice were randomly assigned to treatment and control groups (n=5) for a total of nine groups: no treatment (control), activator (L) (RG-115932) alone, and AdRTS-mlL12 alone, and Ad-RTS-mIL12 with different activator dose (50, 100, 250, 500 and 1000 mg/kg) of ligand. The cohorts receiving activator (L) were fed rodent 2018 Teklad Global 18% Protein Rodent Diet chow blended with activator (1000 mg/kg chow) ad libitum. Cohorts receiving treatment with Ad-RTS-mIL12 alone or no treatment continued to receive a regular 2018 Teklad Global 18% Protein Rodent Diet chow diet. Treatment was initiated when the tumor reached […]. A single dose of Ad-RTSmIL12 (1e10 vp/100 ul in PBS) was given to mice through intratumoral (i.t.) injection on Day 13 post tumor cell inoculation. The activator (L) chow was given to mice 24 hr prior to vector injection. Tumor size and body weight of each mouse were monitored three times a week using calipers and a weight scale until the end of experiment. The experiment was terminated when the tumor size exceeded >2000 mm^3. Data were uploaded into Study Log animal study software.

In test [2] the test system is murine Lewis lung carcinoma cells (LLC). Description: Ad-RTS-mIL12 in the Lewis lung carcinoma (LLC) model. The test is classed as in vivo, mouse. The settings on record: activator (L) chow alone. From the text:
Female, 6- to 8-week-old C57b/6 immunocompetent mice were inoculated subcutaneously (s.c.) with murine Lewis lung carcinoma cells (LLC). Five days post cell inoculation, the mice were randomized and assigned to treatment and control groups (n=5) for a total of four groups—no treatment (control), activator (RG-115932) alone, AdRTS-mIL12 alone and Ad-RTS-mIL12 plus activator. The cohorts receiving activator (L) were fed (2018 Teklad Global 18% Protein Rodent Diet (Harlan Laboratories) chow blended with activator (1000 mg/kg chow) ad libitum. Cohorts receiving treatment with Ad-RTS-mIL12 alone or no treatment continued to receive a regular diet. Treatment was initiated when the tumor reached 28±6 mm^3. The Ad-RTS-mIL12 (1e10 vp/100 ul in PBS) was given to mice through intratumoral (i.t.) injection on Day 6, 9 and 13 post tumor cell inoculation. Activator chow (L) was started to given to mice 24 hr prior to vector administration. Tumor size and body weight of each mouse were monitored three times a week using calipers and a weight scale until the end of experiment. The experiment was terminated when the mice tumor size exceeded >1200 mm^3. Data were uploaded into Study Log animal study software.

Test [3] relates to PAN02 pancreatic cancer cells. Description: Ad-RTS-mIL12 in the pancreatic cancer (PAN02) model. The test is classed as in vivo, mouse. As to conditions: activator alone. Here is the method:
Female, 6- to 8-week-old C57b/6 immuno competent mice were inoculated subcutaneously (s.c.) with syngenic PAN02 pancreatic cancer cells (ATCC). Six days post cell inoculation, the mice were randomized into groups of five animals each in four groups—no treatment, activator (RG-115932) alone, Ad-RTS-mIL12 alone and Ad-RTS-mIL12 plus activator. The cohorts receiving activator ligand were fed 2018 Teklad Global 18% Protein Rodent Diet chow (Harlan Laboratories) blended with activator (1000 mg/kg chow) ad libitum. Cohorts receiving treatment with Ad-RTS-mIL12 alone or no treatment continued to receive 2018 Teklad Global 18% Protein Rodent Diet chow. Mice received treatment with a single intratumoral (i.t.) injection of Ad-RTS-mIL12 at dose level of 1e10 vp/100 ul in PBS, on Day 7 and Day 14 post tumor cell implantation. The tumor size averaged […] at the time of vector treatment initiation.
Tumor size and body weight of each mouse were monitored three times a week until the end of experiment. The experiment was terminated when the mice tumor size exceeded 600 mm^3. Since pancreatic tumors grow very slowly, we defined […]. The tumor growth in mice receiving no treatment was normal.

Test [4] has as its system breast cancer (4T1) cells. Description: Ad-RTS-mIL12 in the breast cancer (4T1) model. The test is classed as in vivo, mouse. The settings on record: activator ligand alone, Day 26. Here is the method: Six- to eight-week-old female BalbC mice were purchased from Charles River Laboratories or Harlan (USA). Animal care and experimental procedure were performed according to the Intrexon's Institutional Animal Care and Use Committee guideline.
Murine breast carcinoma (4T1) cell lines were purchased from ATCC (Manassas, Va.). The 4T1 cells were grown in Roswell Park Memorial Institute medium (RPMI) 1640 (ATCC, Manassas, Va. The medium was supplemented with heat-inactivated fetal calf serum (FCS) 10% v/v, 2-mM L-glutamine (Atlanta Biologicals, Inc, Lawrenceville, Ga.), 100 IU/ml penicillin G, and 100 μg/ml streptomycin. The cells were grown at 37° C. in 5% C02. All cell lines were routinely tested and found to be free of mycoplasma.
Female, 6- to 8-week-old BALB/c immune-competent mice were inoculated subcutaneously (s.c.) with syngenic breast cancer (4T1) cells, 1e5 cells/50 ul. Eight days post cell inoculation, the mice were randomized into groups of five animals each in four groups—no treatment, activator alone, Ad-RTS-mIL12 alone and Ad-RTS-mIL12 plus activator. The cohorts receiving activator ligand were fed rodent chow blended with activator (1000 mg/kg) ad libitum. […] Tumor size and body weight of each mouse were monitored three times a week until the end of experiment. […]

Test [5] concerns murine colon cancer cells (CT26Luc). Description: Ad-RTS-mIL12 in the colon cancer (CT26Luc) model. The settings on record: activator chow alone. The test is classed as in vivo, mouse. From the text: Female, 6- to 8-week-old Balb/C immunocompetent mice were inoculated subcutaneously (s.c.) with luciferase expressing stable murine colon cancer cells (CT26Luc). Ten days post cell inoculation, the mice were randomly assigned to treatment and control groups (n=5) for a total of three groups—no treatment (control), activator (L) (RG-115932) alone, and Ad-RTS-mIL12 plus activator. The cohorts receiving activator (L) were fed 2018 Teklad Global 18% Protein Rodent Diet chow (Harlan Laboratories) blended with activator (1000 mg/kg chow) ad libitum. Cohorts receiving no treatment continued to receive 2018 Teklad Global 18% Protein Rodent Diet chow. Treatment was initiated when the tumor reached 40+17 mm^3. The Ad-RTS-mIL12 (1e10 vp/100 ul in PBS) was given to mice through intratumoral (i.t.) injection on Day 11 and 18 post tumor cell inoculation. The activator (L) chow was given to mice 24 hr prior to vector injection. Tumor size and body weight of each mouse were monitored three times a week using calipers and a weight scale until the end of experiment. The experiment was terminated when the mouse tumor size exceeds >2000 mm^3. Data were uploaded into Study Log animal study software.

For test [6], the system named is B16F0 murine melanoma cancer cells. Description: Ad-RTS-IL-12 dose response study in the mouse B16F0 melanoma model. The settings on record: ligand by itself (chow). The test is classed as in vivo. An excerpt: The anti-tumor effect of Ad-RTS-IL-12 has been evaluated in a series of murine tumor models of melanoma, colorectal, pancreatic, breast, lung and renal cancers. An exemplary dose response experiment is shown below. Immuno-competent female C57bl/6 mice (6-8 week old) were inoculated subcutaneously with B16F0 murine melanoma cancer cells. Eleven days after tumor cell inoculation, when macroscopic tumor nodules were evident (tumor volumes averaged approx. 40 mm^3), the mice were separated into groups of 5 animals each. There were 9 groups including: control saline treated; activator ligand treated; Ad-RTS-mIL12 ([…]) alone and 6 groups were treated with different doses of vector Ad-RTS-mIL-12 (1e7, 1e8, 1e9, 5e9, 1e10, 5e10 viral particles) plus activator ligand. Mice in the +ligand groups were provided 100 mg/kg activator ligand in 2018 Teklad Global 18% Protein Rodent Diet (Harlan Laboratories) chow (1000 mg ligand/kg chow) one day before the vector administration. The mice in control groups received 2018 Teklad Global 18% Protein Rodent Diet chow. A single administration of Ad-RTS-mIL12 in 100 ul PBS was injected into tumor on day 12. Tumor volume and body weights were measured every 2-3 days using calipers and a weight scale, and the animals were followed until control tumors reached 2000 mm^3. Data were uploaded into Study Log animal study software.

Structures are written as SMILES.

Consider `CCC[C@@H](N(NC(=O)c1cccc(OC)c1CC)C(=O)c1cc(C)cc(C)c1)C(C)(C)C` [RG-115932, (R)-3,5-Dimethyl-benzoic acid N-(1-tert-butyl-butyl)-N′-(2-ethyl-3-methoxy-benzoyl)-hydrazide], for which the anti-tumor activity result in test [1] is “did not have anti-tumor activity”. The “tumor growth kinetics versus control” value in test [2] was “approximately similar tumor growth kinetics”. The tumor growth delay entry in test [3] is given as “minor tumor growth delay”. Besides, the “tumor growth inhibition relative to control” value in test [4] is 22%; in test [4] (listed as activator ligand (L)) it was 35%. Moreover, the tumor growth result in test [5] is recorded as “did not inhibit tumor growth”. Moreover, the anti-tumor effect result in test [6] is reported as “no effect”.

These data come from patent US10584351B2, “Vectors conditionally expressing therapeutic proteins, host cells comprising the vectors, and uses thereof” (Intrexon Corporation, priority 2010, dated 2020).
